# Measurements reported in a melting point compilation (Tetko et al.; mined from patent text by program, amines drawn as free bases though some values may be those of a salt).
row,SMILES,melting point [°C]
1,CCN1C(=O)Cc2cc(OCc3ccccc3C(=O)O)ccc21,180 to 181
2,COCCNC(=O)c1ccc(Br)c(C)c1,79 to 81
3,Cc1ccc(Nc2nc(-c3c(-c4ccccc4)noc3C)cs2)nc1,267 to 269
4,CN1CCN(Cc2ccc(NC(=O)c3cccc4cc(Oc5ccnc(NC(=O)C6CC6)c5)ccc34)cc2C(F)(F)F)CC1,218 to 220
5,COC(C)c1cc(S(N)(=O)=S)sc1C (configuration not stated),86 to 94
6,COC(=O)c1cc(Cl)c(C)c(Cl)c1,47.5 to 48.5
7,CC(C)(C(N)=O)c1nnc2ccc(OCCCN3CCC(OC(c4ccccc4)c4ccccc4)CC3)nn12,133 to 136
8,CCOC(Cc1ccc(OCc2nc(C(C)(C)C)oc2C)c2ccccc12)C(=O)O (configuration not stated),185 to 186
9,CCCONC(=O)c1c(Cl)ccc(C(=O)OC)c1Cl,80 to 81
10,N#Cc1ccc(CNC(=O)c2cccc(C#CCn3ccnn3)c2)cc1,145 to 147
11,C=CCC1(CC=C)c2cc(Br)ccc2-c2ccc(N(c3ccccc3)c3ccccc3)cc21,141 to 143
12,COC(=O)c1cc(CC#N)cc(CC#N)c1,90 to 92
13,Cc1cccc2[nH]c3c(c(C)nn3-c3ccccn3)c(=O)c12,183 to 186
14,CONC(=O)c1cc(-c2ccc(-c3ccco3)cc2)n(-c2ccc(S(C)(=O)=O)c(F)c2)n1,126 to 128
15,O=C1c2cc(OCCCl)ccc2-c2ccc(OCCCl)cc21,135 to 139
16,CCN1CCN([C@@H](CNS(=O)(=O)c2ccc(OCc3cc(C)nc4ccccc34)cc2)C(=O)NO)CC1,150
17,O=c1[nH]c2ccccc2cc1-c1csc(NS(=O)(=O)c2ccc(Cl)cc2)n1,> 300
18,COc1cc(N2CCCN(C[C@@H](C)O)CC2)ccc1Nc1ncc2ccc(-c3ccccc3OC)n2n1,70 to 79
19,CCc1cc(/C=C/[N+](=O)[O-])ccc1N=C1SCC2(CCCC2)N1C1CCCC1,141 to 142
20,CS(=O)(=O)c1ccc(-c2cnn(Cc3ccc4ccccc4n3)c(=O)c2-c2ccc(F)cc2)cc1,97 to 100
21,Clc1ccc2c(c1)Cc1ccc(-c3nnn[nH]3)cc1S2,257

row,SMILES,melting point [°C]
1,CSc1ncc(CCc2cccnc2)c(=O)[nH]1,191 to 192
2,ClCc1cnc2ccc(Cl)cc2c1Cl,102 to 105
3,O=C(O)COc1cccc(C=Cc2nc(-c3ccccc3)c(-c3ccccc3)o2)c1,213 to 215
4,CCOC(=O)C1=C(C)NC(C(F)F)=C(C(=O)OCC)C1c1cccc([N+](=O)[O-])c1 (configuration not stated),148 to 149
5,CC(=O)Nc1ccc(N2CCN(Cc3ncc(-c4ccccc4)o3)CC2)cc1,196 to 197
6,COc1cc2[nH]c(=O)n(-c3ccccc3C)c(=O)c2cc1OC,282 to 284
7,Cc1nn2c(c1Cl)N=NC2CCNC(=O)c1ccccc1C(=O)O (configuration not stated),162 to 166
8,CC(=O)c1ccc2c(c1)C(c1ccccc1F)=NC(C)C(=O)N2C (configuration not stated),65
9,O=C1c2ccccc2C(=O)c2oc(-c3ccccc3Cl)nc21,216
10,N#Cc1cc(Br)c(O)c([N+](=O)[O-])c1,162 to 164
11,CC(=O)SC[C@H](NC(=O)OC(C)(C)C)C(=O)NC(CS)C(C)=O (some centres not stated),111 to 113
12,COc1ccc(-c2ccccn2)c(NC(=O)CC(C)NC(=O)OC(C)(C)C)c1 (configuration not stated),143 to 145
13,Nc1ccc(Sc2ccnc(N)c2)cc1,141 to 143
14,COc1cc(OC)cc(-c2ncoc2-c2ccc(OC)c(O)c2N)c1,140 to 143
15,CNC(=O)Cc1ccc2ccn(C3CCN(CCc4ccc(F)cc4)CC3)c2c1,149 to 150
16,OCC1OC(n2c(C(F)(F)F)nc3c(Cl)cc(Cl)cc32)C(O)C1O (configuration not stated),162
17,O=C(c1ccccc1)C1CCN(CC2CN(c3ccccc3)C(=O)O2)CC1 (configuration not stated),104 to 105
18,O=C(CCc1ccccc1)Oc1n[nH]c(=O)c2nc3cc(Cl)cc(Cl)c3c(O)c12,> 395
19,COc1cc2c(CC#N)c(Br)[nH]c2cc1Br,169 to 171
20,CCN(CC)C(=O)Oc1nc(-c2ccc(OC)cc2)cc2ccccc12,84
21,Cc1nccn1-c1nc(-c2ccc(Cl)cc2)c(CCCCO)o1,110 to 111
